Like-named read-outs stand apart in the source and are kept apart here.

A short description of test [1]: Binding of fluorescent compounds 7 to sLex in solution (fluorescence intensity change). Particulars: solution binding studies. The procedure: Diboronic acid compounds 7 were designed to show significant fluorescence intensity changes upon binding with a complementary carbohydrate. In screening for their binding with the target carbohydrate, sLex, the fluorescence intensity changes of solutions of the compounds upon addition of the carbohydrate were determined. These experiments were conducted in a mixture of methanol and 0.1 M phosphate buffer (pH 7.4) (1:1, v/v). Methanol was used to improve the solubility of the sensor compounds. The concentration of fluorescent sensor compound (7) (specific structures provided in FIG. 1, above) was fixed at 1×10^−5 or 1×10^−6 M, and the concentration of sLex was set at 60 μM.

The test system of a further test is HEPG2 cells. As to the kind of experiment: Fluorescent labeling of fixed HEPG2 cells expressing sLex (microscopy, densitometry). Type of test: cell-based. Particulars: 1 μM compound. The procedure: (§1) Cell culture. HEPG2 and COS7 cells were maintained in RPMI media (G. E. Moore et al. (1967) J. Am. Med. Assoc. 199, 519-524) with 10% FBS (GIBCO). HEP3B cells were maintained in RPMI with 10% FBS and 1× sodium pyruvate and 1× non-essential amino acids (GIBCO).
(§2) Fluorescent labeling studies. 6-well plates were seeded with 1×10^6 cells per well and incubated at 37° C. and 5% CO2 for 48 h. The media was removed and cells were washed twice with 1×PBS. The cells were fixed with 1.5 mL of 1:1 methanol/PBS and incubated 20 minutes at 4° C. After incubation, the methanol/PBS solution was removed and cells were washed twice with PBS.
(§3) Diboronic acid compounds 7 were resuspended in 1:1 methanol/PBS and added to wells at 0.5 to 10 μM concentrations. One well was incubated only in methanol/PBS without compound as a negative control. The plates were then incubated in darkness at 4° C. for 45 min. Plates were examined with phase contrast microscopy followed by fluorescent microscopy (blue cube wavelengths 370 nm excitation, 426 nm emission; 20× lens). Plates were photographed using a Nikon DXM1200 digital camera and images captured with the Nikon ACT-1 program (v 2.10). The phase contrast and fluorescent images were then overlaid, organized and labeled using Adobe Photoshop 6.0. The images were quantified with NIH ImageJ 1.28. The units (mean gray value) were subtracted from background, where there are no cells. The fluorescent signal was stable for at least 96 h when cells were maintained in darkness.
(§4) HEPG2, a cell line that selectively expresses sLex on the surface, was selected for examination. To examine the selectivity of the sensor for cell surface sLex, HEP3B and COS7 cells were labeled in parallel. COS7 expresses none of the fucosylated antigens associated with carcinoma progression and HEP3B expresses only the Lewis Y antigen. See B. W. Weston et al. (1992) J. Biol. Chem. 267, 4152-4160; B. W. Weston et al. (1992) J. Biol. Chem. 267, 24575-24584.
(§5) HEPG2 and control cell lines were incubated with compound 7q, while three other diboronic acids (7b, 7d, 7y) were used as controls. […]

A further test concerns HEP3B cells. Kind of test: Fluorescent labeling of fixed HEP3B cells expressing Lewis Y (microscopy, densitometry). In kind it is cell-based. Particulars: 1 μM compound. The procedure:
as §1, §2, §3, §4, §5

Test [2] is described as follows: Solution binding studies with Lewis Y (data not shown).
For test [3] the following is noted: Springsteen et al.; cited from earlier work.
The conditions of test [4]: Springsteen et al.; cited from earlier work. This is another data set of the same source.
Test [5] can be described thus: Fluorescence titration of sensor compounds with glucose. In kind it is binding. The procedure: (§6) The affinity and selectivity of the fluorescent sensor compounds (7) for glucose were evaluated. Specifically, 2 mL of a solution of each sensor compound (7) in methanol (2×10^−6 M) was mixed with 2 mL of aqueous saccharide phosphate buffer solution (pH 7.4) at various concentrations, and the fluorescence intensity recorded. […] This represents a 43- and 49-fold selectivity over fructose and galactose, respectively. In addition, fluorescence enhancement was very large (about 7-fold).

A short description of test [6]: Fluorescence titration of sensor compounds with galactose. Type of test: binding. Particulars: 50% MeOH/0.1 M phosphate buffer pH 7.4, sensor 1×10^−6 M, 25° C. The protocol: as §6
Test [7] is described as follows: Fluorescence titration of sensor compounds with fructose. Type of test: binding. Particulars: 50% MeOH/0.1 M phosphate buffer pH 7.4, sensor 1×10^−6 M, 25° C. The procedure: as §6

For `CN(Cc1ccccc1B(O)O)Cc1c2ccccc2c(CN(C)C(=O)CCc2ccc(CCC(=O)N(C)Cc3c4ccccc4c(CN(C)Cc4ccccc4B(O)O)c4ccccc34)cc2)c2ccccc12` [Compound 7d], the “affinity for sLex in solution” value in test [1] is given as “low affinity”. For the same molecule, the “labeling of HEPG2 cells (mean gray value)” value (shortened to “labeling of HEPG2 cells”) in the test with HEPG2 cells is “did not label HEPG2 or HEP3B”. The “labeling of HEP3B cells (mean gray value)” value (“labeling of HEP3B cells” for short) in the test with HEP3B cells was “did not label HEPG2 or HEP3B”. Also, the “affinity for Lewis Y in solution” value in [2] was “low affinity”.

Consider `CN(Cc1ccccc1B(O)O)Cc1c2ccccc2c(CN(C)C(=O)CCCCC(=O)N(C)Cc2c3ccccc3c(CN(C)Cc3ccccc3B(O)O)c3ccccc23)c2ccccc12` [Compound 7y], for which the “labeling of HEPG2 cells” value with HEPG2 cells was “recognized surface sLex and Lewis Y with equal avidity”. Also, the “labeling of HEP3B cells” value in the test on HEP3B cells was “recognized surface sLex and Lewis Y with equal avidity”.

Regarding `OB(O)c1ccccc1` [PBA, phenylboronic acid], the Ka for fructose in test [3] was 162 M⁻¹. Also, the Ka for glucose in test [4] is 5 M⁻¹.

For `CN(Cc1ccccc1B(O)O)Cc1c2ccccc2c(CN(C)C(=O)Cc2ccccc2CC(=O)N(C)Cc2c3ccccc3c(CN(C)Cc3ccccc3B(O)O)c3ccccc23)c2ccccc12` [Compound 7b], in the test with HEPG2 cells, the “labeling of HEPG2 cells” value is on record as “did not recognize sLex on HEPG2 cells”. The “labeling of HEP3B cells” value in the test on HEP3B cells was “avidly bound Lewis Y-expressing HEP3B cells”. For the same molecule, in [5] (50% MeOH/0.1 M phosphate buffer pH 7.4, sensor 1×10^−6 M, 25° C.), the Ka for glucose was determined as 1472 M⁻¹. Also, the “glucose concentration region of most sensitive fluorescence intensity changes” value in test [5] (FIG. 8) is listed as “mM region”. Besides, in [5] (ratio of Ka), the “selectivity for glucose over fructose” value is on record as 43 fold and the “selectivity for glucose over galactose” value was found to be 49 fold. Moreover, in test [5] (versus phenylboronic acid), the “improvement in affinity for glucose compared with PBA” value is “about 300 fold” and the “improvement in selectivity for glucose over fructose compared with PBA” value is listed as “about 1400 fold”. This molecule returned a Ka for galactose in test [6] of 30 M⁻¹. Besides, in test [7], the Ka for fructose was determined as 34 M⁻¹.

The values above are taken from patent publication US6916660B2, “Fluorescent sensor compounds for detecting saccharides” (North Carolina State University, priority 2002, dated 2005).
